Results on 13 compounds are retold here after PubChem BioAssay (NCI).

Assay in all cases: growth of human tumour cells (NCI), 48 h
Experiment [1] relates to HOP-62 NSCLC.
Experiment [2] deals with HS 578T breast.
The test system of experiment [3] is IGROV1 ovarian.
Experiment [4] concerns MDA-MB-231 breast.
Experiment [5] has as its system NCI-H226 lung.
Experiment [6] deals with OVCAR-3 ovarian.
Experiment [7] concerns SF-268 CNS.
In experiment [8] the test system is SK-MEL-5 melanoma.
Experiment [9] deals with T-47D breast.
The test system of experiment [10] is U251 CNS.

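Where inhibition never reached the appropriate level, the endpoint shown equals the highest concentration tested. Otherwise, values were interpolated linearly from a five-concentration, 48-hour dose response in 96-well plates. At the GI50, growth is halved. TGI: total growth inhibition.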

With `O=C(N/N=C/c1ccccc1O)c1ccccc1Nc1ccnc(C(F)(F)F)c1`, the GI50 in experiment [1] is 0.41 µM; in [2] it was 12.9 µM; in experiment [3] it was 0.0154 µM; in experiment [4] it was 0.796 µM; in [5], 1.08 µM; in experiment [6] it was 0.45 µM. The GI50 in experiment [7] was 0.448 µM; in [8], 0.432 µM; in experiment [9] it was 1.07 µM; in [10], 0.442 µM. The TGI was 13.4 µM in experiment [1]; > 100 µM in experiment [2]; 0.0883 µM in [3]; > 95.4 µM in experiment [4]; 12.1 µM in experiment [5]; 22.6 µM in experiment [6]. For the same compound, the TGI in [7] was > 89.3 µM; in [8] it was 5.53 µM; in experiment [9], > 78.4 µM; in experiment [10], > 100 µM.

As for `CCCn1cnc2c(SCc3ccccc3Cl)nc(N)nc21`, the GI50 is 21.1 µM in [1]; 40.4 µM in [2]; 13.3 µM in experiment [3]; 11.8 µM in [4]; 16.4 µM in [5]; 20.5 µM in experiment [6]. Also, the GI50 in [7] was 12.1 µM; in experiment [8], 4.22 µM; in experiment [9], 22 µM; in [10], 5.62 µM. The TGI in experiment [1] is > 100 µM; in experiment [2], > 100 µM; in [3] it was > 100 µM; in experiment [4], 29.3 µM; in experiment [5], > 100 µM; in [6], 79.6 µM. For the same compound, the TGI in experiment [7] is 92.7 µM; in experiment [8], 19 µM; in [9] it was 80.8 µM; in experiment [10], 37.8 µM.

With `CCN(CC)c1ccc(/C=C/c2ccc3cc(C)ccc3[n+]2CC)cc1`, the GI50 is 0.158 µM in [1]; 1.01 µM in experiment [2]; 0.201 µM in experiment [3]; 0.215 µM in experiment [4]; 0.152 µM in experiment [5]; 0.075 µM in [6]. Further, the GI50 was 0.406 µM in [7], 0.0493 µM in experiment [8], 0.0182 µM in experiment [9] and 0.0441 µM in experiment [10]. Besides, the TGI worked out at 6.21 µM in [1]; 69 µM in experiment [2]; 18.1 µM in experiment [3]; 2.16 µM in experiment [4]; 9.85 µM in experiment [5]; 0.995 µM in [6]. Moreover, the TGI in experiment [7] turned out to be 16.5 µM; in experiment [8] it was 0.261 µM; in experiment [9], 1.41 µM; in experiment [10], 14.5 µM.

Consider `N#CSc1c[nH]c2cccc(/C=C/C(=O)/C=C(/C=C/c3cccc4[nH]cc(SC#N)c34)OB(F)F)c12`, for which the GI50 was 3.16 µM in experiment [1]; 2.17 µM in [2]; 0.448 µM in experiment [3]; 0.442 µM in experiment [4]; 2.21 µM in [5]; 0.243 µM in experiment [6]. Moreover, the GI50 is 1.07 µM in [7], 1.23 µM in experiment [8], 0.358 µM in [9] and 0.366 µM in [10]. Moreover, the TGI in [1] is 17.1 µM; in experiment [2] it was > 58.6 µM; in [3], 4.36 µM; in experiment [4] it was 1.57 µM; in experiment [5], 5.9 µM; in [6], 0.586 µM. Also, the TGI in experiment [7] stood at 6.44 µM; in experiment [8], 2.92 µM; in experiment [9], 6.2 µM; in [10] it was 4.25 µM.

As for `CC[C@@]1(O)C(=O)OCc2c1cc1n(c2=O)Cc2c-1nc1cc3c(cc1c2CCl)OCO3`, the GI50 is < 0.01 µM in [1]; 1.29 µM in experiment [2]; 0.139 µM in experiment [3]; 1.38 µM in experiment [4]; < 0.01 µM in experiment [5]; 0.333 µM in [6]. In addition, the GI50 in [7], in experiment [8], in experiment [9] and in [10] was < 0.01 µM each time. The TGI was < 0.0479 µM in experiment [1]; > 54.1 µM in [2]; 5.75 µM in [3]; 20.7 µM in experiment [4]; 1.3 µM in experiment [5]; 3.07 µM in [6]. Moreover, the TGI in experiment [7] is 4.62 µM; in [8] it was 1.13 µM; in experiment [9] it was > 71.9 µM; in experiment [10] it was 1.9 µM.

With `Nc1cc(N)c2nc(-c3ccccc3)c(Nc3ccc(Cl)c(Cl)c3)nc2c1`, the GI50 in [1] was 17.5 µM; in experiment [2], 18.9 µM; in experiment [3] it was 4.92 µM; in experiment [4], 5.72 µM; in experiment [5] it was 17.5 µM; in experiment [6], 2.93 µM. The GI50 in experiment [7] was 12 µM; in experiment [8] it was 11 µM; in [9], 11.6 µM; in experiment [10], 4.68 µM. Also, the TGI stood at 38.4 µM in experiment [1]; 51.7 µM in [2]; 21.1 µM in experiment [3]; 27.8 µM in experiment [4]; 37.6 µM in experiment [5]; 9.91 µM in [6]. In addition, the TGI in experiment [7] was 28.6 µM; in experiment [8], 25.5 µM; in [9] it was 31.1 µM; in experiment [10], > 100 µM.

With `C[C@@H]1OC(O)[C@@H](F)[C@H](O)[C@@H]1O` (stereo not given in full), the GI50 in experiment [1], in experiment [2], in [3], in experiment [4], in [5] and in experiment [6] was > 100 µM throughout. Besides, the GI50 in experiment [7], in [8], in experiment [9] and in experiment [10] was > 100 µM each time. Moreover, the TGI in experiment [1], in experiment [2], in experiment [3], in experiment [4], in [5] and in experiment [6] was > 100 µM each time. In addition, the TGI in experiment [7], in experiment [8], in experiment [9] and in [10] was > 100 µM in each case.

Regarding `N#Cc1ccc(NC(=O)Nc2ccc(Oc3ccc(NC(=O)Nc4ccc(C#N)cc4)cc3)cc2)cc1`, the GI50 in experiment [1] is 3.06 µM; in [2] it was 7.49 µM; in [3] it was 30.4 µM; in [4], 12.4 µM; in experiment [5] it was 23.1 µM; in experiment [6], 19.4 µM. The GI50 in experiment [7] was 10.8 µM; in experiment [8], 20.2 µM; in [9], 0.622 µM; in experiment [10] it was 4.85 µM. The TGI in experiment [1] was 20.6 µM; in experiment [2], > 100 µM; in [3] it was > 100 µM; in experiment [4], > 100 µM; in [5] it was > 100 µM; in [6], > 100 µM. The TGI was > 100 µM in [7], > 100 µM in [8], 31.6 µM in [9] and 27.8 µM in experiment [10].

Consider `COc1ccc(/C=C/c2nccc3ccccc23)cc1OC`, for which the TGI in experiment [1], in experiment [2], in [3], in experiment [4], in experiment [5] and in experiment [6] was > 10 µM in each case. Also, the TGI in [7], in experiment [8], in experiment [9] and in [10] was > 10 µM each time.

Consider `O=C1CCCCN1CCCCC#Cc1ccccc1C#Cc1ccc([N+](=O)[O-])cc1`, for which the GI50 is 8.01 µM in experiment [1]; 5.05 µM in [2]; 8.21 µM in experiment [3]; 12.8 µM in experiment [4]; 5.03 µM in experiment [5]; 10.9 µM in experiment [6]. The GI50 in experiment [7] was 11.7 µM; in experiment [8], 1.75 µM; in [9], 3.52 µM; in experiment [10], 3.79 µM. For the same compound, the TGI in [1] is 22.5 µM; in experiment [2], 23.5 µM; in experiment [3] it was 37.5 µM; in [4], 51.4 µM; in experiment [5] it was 22.1 µM; in [6] it was 23.6 µM. Further, the TGI in experiment [7] stood at 27.3 µM; in experiment [8], 3.88 µM; in experiment [9], 18.7 µM; in experiment [10], 14.4 µM.

In the case of `Oc1c(CN2CCC(N3CCCCC3)CC2)cc(Cc2cc(CN3CCC(N4CCCCC4)CC3)c(O)c3ncccc23)c2cccnc12`, the GI50 in [1] was 0.425 µM; in [2] it was 4.67 µM; in experiment [3], 1.16 µM; in [4] it was 0.329 µM; in [5], 1.49 µM; in experiment [6] it was 0.517 µM. Also, the GI50 in experiment [7] was 0.537 µM; in experiment [8], 1.15 µM; in [9], 0.51 µM; in experiment [10], 0.835 µM. The TGI was 4.93 µM in experiment [1]; 28.7 µM in experiment [2]; 17.3 µM in [3]; 14.4 µM in [4]; 4.53 µM in experiment [5]; 10.1 µM in experiment [6]. For the same compound, the TGI came to 13.8 µM in experiment [7], 2.59 µM in experiment [8], 4.8 µM in experiment [9] and 13.6 µM in experiment [10].

Regarding `O=C1c2cc(Cl)ccc2S(=O)(=O)c2c(NCCCNCCO)nc3ccccc3c21`, the GI50 is 4.54 µM in experiment [1]; 2.68 µM in experiment [2]; 2.88 µM in [3]; 1.49 µM in [4]; 10.1 µM in [5]; 0.478 µM in experiment [6]. The GI50 in experiment [7] is 1.7 µM; in experiment [8] it was 2.5 µM; in experiment [9] it was 1.24 µM; in [10], 1.62 µM. Further, the TGI was 16.7 µM in experiment [1]; 14.9 µM in [2]; 9.56 µM in experiment [3]; 2.94 µM in experiment [4]; 22.7 µM in experiment [5]; 1.66 µM in experiment [6]. The TGI in experiment [7] came to 4.37 µM; in [8], 6.48 µM; in experiment [9], 2.96 µM; in experiment [10], 3.18 µM.

Take `Oc1ccc(CN2CCC(N3CCCCC3)CC2)c2cccnc12`: the GI50 in [1] was 6.25 µM; in experiment [2] it was 17.6 µM; in [3], 23.4 µM; in experiment [4] it was 22.4 µM; in experiment [5] it was 29 µM; in experiment [6], 27.5 µM. Also, the GI50 was 7.06 µM in [7], 15.8 µM in experiment [8], 23.6 µM in experiment [9] and 5.57 µM in experiment [10]. The TGI in experiment [1] was > 100 µM; in experiment [2], > 100 µM; in [3], > 100 µM; in experiment [4], > 100 µM; in [5], 82.2 µM; in [6], > 100 µM. Besides, the TGI in [7] was > 100 µM; in [8], 75.9 µM; in [9] it was > 100 µM; in experiment [10] it was > 100 µM.
